Laboratory results: PMC9851200, “Multiparameter phenotypic screening for endogenous TFEB and TFE3 translocation identifies novel chemical series modulating lysosome function” (Autophagy, 2022)

What was measured:
Assay type in all cases: binding
[1] = target: CSNK1D (Homo sapiens, UniProt P48730); assay: KINOMEscan CSNK1D; conditions: NEW KINOMEscan
[2] = target: T1, PRKD3 (Homo sapiens, UniProt O94806); assay: KINOMEscan PRKD3; conditions: kinase PRKD3; NEW KINOMEscan
T1 sequence (O94806 1-890): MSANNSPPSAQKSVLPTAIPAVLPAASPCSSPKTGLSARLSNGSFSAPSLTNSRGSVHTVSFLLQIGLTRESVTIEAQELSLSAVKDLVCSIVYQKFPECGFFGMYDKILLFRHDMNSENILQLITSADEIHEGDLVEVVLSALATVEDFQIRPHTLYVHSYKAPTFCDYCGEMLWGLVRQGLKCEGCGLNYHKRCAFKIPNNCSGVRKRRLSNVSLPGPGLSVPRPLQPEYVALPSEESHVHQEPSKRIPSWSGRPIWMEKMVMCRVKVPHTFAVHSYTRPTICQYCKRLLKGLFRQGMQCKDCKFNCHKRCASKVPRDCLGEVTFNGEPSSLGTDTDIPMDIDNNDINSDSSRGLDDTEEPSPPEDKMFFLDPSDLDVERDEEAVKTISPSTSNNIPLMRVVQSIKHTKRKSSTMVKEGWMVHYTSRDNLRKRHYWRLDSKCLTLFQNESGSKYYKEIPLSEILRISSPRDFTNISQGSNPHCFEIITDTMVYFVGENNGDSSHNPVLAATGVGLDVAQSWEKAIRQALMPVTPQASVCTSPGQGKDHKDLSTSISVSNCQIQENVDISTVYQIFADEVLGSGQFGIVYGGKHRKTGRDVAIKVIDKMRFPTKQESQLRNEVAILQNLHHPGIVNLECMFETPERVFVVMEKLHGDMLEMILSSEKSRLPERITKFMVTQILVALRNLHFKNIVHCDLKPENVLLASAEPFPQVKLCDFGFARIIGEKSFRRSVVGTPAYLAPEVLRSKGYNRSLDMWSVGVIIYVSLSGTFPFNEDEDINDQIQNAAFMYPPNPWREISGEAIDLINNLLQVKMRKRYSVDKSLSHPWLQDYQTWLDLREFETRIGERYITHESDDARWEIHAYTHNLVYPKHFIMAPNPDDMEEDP

[3] = target: T2, PRKD1 (Homo sapiens, UniProt Q15139); assay: KINOMEscan PRKD1; conditions: NEW KINOMEscan
T2 sequence (Q15139 1-912): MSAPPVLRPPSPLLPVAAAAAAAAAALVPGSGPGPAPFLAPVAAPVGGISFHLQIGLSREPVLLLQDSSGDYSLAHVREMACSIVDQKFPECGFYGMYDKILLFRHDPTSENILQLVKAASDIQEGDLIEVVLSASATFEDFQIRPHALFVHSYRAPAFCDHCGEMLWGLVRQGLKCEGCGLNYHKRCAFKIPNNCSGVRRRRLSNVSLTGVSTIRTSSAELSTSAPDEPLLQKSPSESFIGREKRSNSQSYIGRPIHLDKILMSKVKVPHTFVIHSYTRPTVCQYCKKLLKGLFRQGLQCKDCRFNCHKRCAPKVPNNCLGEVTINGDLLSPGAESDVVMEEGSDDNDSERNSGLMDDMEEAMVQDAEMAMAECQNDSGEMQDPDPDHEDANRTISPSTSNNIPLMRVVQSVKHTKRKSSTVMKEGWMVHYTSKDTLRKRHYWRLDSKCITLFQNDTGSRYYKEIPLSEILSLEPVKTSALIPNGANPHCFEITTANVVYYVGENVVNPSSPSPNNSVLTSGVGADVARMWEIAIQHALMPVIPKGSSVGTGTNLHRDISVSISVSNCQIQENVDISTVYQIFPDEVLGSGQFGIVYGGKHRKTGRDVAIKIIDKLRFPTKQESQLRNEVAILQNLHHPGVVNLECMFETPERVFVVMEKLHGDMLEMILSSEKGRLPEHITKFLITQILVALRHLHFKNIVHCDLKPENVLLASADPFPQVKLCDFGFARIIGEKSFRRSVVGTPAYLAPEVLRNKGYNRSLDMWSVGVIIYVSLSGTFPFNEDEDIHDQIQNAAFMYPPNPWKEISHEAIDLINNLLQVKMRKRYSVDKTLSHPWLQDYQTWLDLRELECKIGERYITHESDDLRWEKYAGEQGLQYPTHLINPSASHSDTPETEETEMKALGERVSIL

[4] = target: PIKFYVE (Homo sapiens, UniProt Q9Y2I7); assay: KINOMEscan PIKFYVE; conditions: kinase PIKFYVE; NEW KINOMEscan
[5] = target: T3, PRKD2 (Homo sapiens, UniProt Q9BZL6); assay: KINOMEscan PRKD2; conditions: NEW KINOMEscan
T3 sequence (Q9BZL6 1-878): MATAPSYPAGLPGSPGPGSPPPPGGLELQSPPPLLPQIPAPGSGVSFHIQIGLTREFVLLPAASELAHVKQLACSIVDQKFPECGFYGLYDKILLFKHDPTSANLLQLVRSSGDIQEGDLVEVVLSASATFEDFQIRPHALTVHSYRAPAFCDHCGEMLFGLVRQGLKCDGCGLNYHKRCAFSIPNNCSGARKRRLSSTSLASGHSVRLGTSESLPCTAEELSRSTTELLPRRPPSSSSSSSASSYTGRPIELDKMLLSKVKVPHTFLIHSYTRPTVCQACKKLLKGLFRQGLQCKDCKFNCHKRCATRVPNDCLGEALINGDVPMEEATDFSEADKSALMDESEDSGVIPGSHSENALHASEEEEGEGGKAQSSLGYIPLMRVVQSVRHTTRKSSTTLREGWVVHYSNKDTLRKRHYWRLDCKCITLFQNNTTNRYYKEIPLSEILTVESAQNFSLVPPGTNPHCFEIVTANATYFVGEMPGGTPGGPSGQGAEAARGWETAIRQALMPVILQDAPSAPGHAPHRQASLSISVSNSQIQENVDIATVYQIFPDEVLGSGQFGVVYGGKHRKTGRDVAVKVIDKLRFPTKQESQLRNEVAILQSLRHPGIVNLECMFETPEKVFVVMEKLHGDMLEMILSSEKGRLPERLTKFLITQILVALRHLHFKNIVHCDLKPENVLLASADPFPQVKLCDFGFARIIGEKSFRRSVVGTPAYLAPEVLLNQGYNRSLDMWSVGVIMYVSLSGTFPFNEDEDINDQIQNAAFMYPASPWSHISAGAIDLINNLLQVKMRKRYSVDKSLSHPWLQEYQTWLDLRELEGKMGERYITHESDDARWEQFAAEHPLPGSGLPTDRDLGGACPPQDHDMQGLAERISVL

Sequence of CSNK1D (P48730 whole entry): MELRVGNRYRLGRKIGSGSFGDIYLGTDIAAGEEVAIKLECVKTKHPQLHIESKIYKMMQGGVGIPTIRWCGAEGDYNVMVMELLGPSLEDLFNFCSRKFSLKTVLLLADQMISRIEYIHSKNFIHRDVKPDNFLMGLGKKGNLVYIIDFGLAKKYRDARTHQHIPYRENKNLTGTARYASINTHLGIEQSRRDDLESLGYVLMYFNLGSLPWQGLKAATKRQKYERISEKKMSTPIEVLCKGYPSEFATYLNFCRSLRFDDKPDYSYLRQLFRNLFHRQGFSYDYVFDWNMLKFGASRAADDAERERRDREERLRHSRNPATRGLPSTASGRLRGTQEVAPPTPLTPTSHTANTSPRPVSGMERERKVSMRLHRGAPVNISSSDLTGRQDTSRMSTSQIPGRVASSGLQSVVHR
Sequence of PIKFYVE (Q9Y2I7 whole entry): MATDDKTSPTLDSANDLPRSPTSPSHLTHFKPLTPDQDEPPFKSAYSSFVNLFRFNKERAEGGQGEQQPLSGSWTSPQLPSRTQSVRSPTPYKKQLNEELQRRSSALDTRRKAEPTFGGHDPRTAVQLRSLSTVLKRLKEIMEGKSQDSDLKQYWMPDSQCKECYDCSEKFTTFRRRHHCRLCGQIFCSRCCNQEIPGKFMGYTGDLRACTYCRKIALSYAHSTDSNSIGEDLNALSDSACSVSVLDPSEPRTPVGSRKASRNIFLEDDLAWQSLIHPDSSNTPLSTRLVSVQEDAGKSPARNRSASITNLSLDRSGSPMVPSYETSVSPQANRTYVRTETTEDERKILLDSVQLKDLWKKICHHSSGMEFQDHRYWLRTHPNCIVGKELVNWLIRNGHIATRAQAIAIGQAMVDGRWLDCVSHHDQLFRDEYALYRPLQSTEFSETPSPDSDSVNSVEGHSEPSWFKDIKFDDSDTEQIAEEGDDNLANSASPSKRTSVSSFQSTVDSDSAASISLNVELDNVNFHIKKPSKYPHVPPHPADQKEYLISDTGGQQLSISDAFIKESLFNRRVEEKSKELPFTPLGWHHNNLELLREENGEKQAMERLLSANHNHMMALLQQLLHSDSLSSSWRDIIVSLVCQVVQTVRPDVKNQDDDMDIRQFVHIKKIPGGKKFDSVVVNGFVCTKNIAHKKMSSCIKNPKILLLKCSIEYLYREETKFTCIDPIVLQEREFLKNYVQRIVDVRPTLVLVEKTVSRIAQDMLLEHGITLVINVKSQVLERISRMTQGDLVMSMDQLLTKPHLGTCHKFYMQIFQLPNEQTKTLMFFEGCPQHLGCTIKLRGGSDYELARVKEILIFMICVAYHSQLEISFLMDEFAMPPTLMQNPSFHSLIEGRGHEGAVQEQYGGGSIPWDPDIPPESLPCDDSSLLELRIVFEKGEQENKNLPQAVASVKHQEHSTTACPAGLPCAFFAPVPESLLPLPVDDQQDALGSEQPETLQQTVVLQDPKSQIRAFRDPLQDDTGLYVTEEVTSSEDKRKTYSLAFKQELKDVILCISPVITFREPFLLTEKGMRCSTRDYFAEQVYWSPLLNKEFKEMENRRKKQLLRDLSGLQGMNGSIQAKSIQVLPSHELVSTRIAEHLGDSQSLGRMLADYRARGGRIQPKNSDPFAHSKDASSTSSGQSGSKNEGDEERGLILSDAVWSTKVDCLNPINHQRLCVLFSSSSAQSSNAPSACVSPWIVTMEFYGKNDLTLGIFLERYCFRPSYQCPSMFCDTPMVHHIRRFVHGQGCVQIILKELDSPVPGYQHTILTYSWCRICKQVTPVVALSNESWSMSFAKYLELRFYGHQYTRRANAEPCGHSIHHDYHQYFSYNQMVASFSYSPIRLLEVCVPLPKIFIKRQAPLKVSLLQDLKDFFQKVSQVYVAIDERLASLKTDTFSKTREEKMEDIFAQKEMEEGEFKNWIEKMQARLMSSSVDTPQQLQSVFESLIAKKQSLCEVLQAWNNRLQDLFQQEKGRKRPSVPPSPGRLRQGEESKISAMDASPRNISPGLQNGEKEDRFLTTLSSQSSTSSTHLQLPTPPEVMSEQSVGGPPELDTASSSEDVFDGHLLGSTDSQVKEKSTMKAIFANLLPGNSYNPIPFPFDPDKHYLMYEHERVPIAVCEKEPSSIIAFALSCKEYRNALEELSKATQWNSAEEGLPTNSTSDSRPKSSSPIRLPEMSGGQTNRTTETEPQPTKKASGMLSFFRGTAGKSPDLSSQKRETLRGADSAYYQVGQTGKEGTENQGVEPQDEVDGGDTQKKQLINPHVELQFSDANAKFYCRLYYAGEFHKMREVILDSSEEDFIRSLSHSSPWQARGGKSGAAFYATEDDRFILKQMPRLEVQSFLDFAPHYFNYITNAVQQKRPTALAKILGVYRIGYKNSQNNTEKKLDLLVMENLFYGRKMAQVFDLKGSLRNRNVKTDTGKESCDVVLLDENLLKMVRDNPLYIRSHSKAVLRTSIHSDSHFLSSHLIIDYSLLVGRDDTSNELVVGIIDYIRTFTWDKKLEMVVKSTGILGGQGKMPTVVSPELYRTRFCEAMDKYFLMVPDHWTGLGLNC

Row | Compound | KINOMEscan CSNK1D [1] | KINOMEscan PRKD3 [2] | KINOMEscan PRKD1 [3] | KINOMEscan PIKFYVE [4] | KINOMEscan PRKD2 [5]
1 | Cc1cccc(-c2nc(Nc3ccc4nn(C)cc4c3)c3ccccc3n2)n1 [NK167] | 4 | 39 | 0 | 0 | 39
2 | Cc1cccc(-c2nc(N(C)c3ccc4ncsc4c3)c3ccccc3n2)n1 [NK-161] | 11 | 74 | 46 | 16 | 63
